What was measured:
human dermal fibroblasts [1] = assay: Retinoid-induced fibroblast survival under low-calcium conditions; type: cell-based; conditions: for protection of fibroblasts from lysis (percentage of initially present cells still viable): 0.1 to 5 μg/mL
Experimental: (§1) Human dermal fibroblasts are isolated from skin biopsies as described previously and grown in monolayer culture using DMEM supplemented with 10% fetal bovine serum as culture medium (see, e.g., Varani J, et al., J Clin Invest. 1994; 94; Varani J, et al., J. Invest. Dermatol. 94:717-723, 1990). Growth is at 37° C. in a humidified atmosphere containing 5% CO2 and 95% air. For experimental studies, cells are plated at 5×10^4 cells per well in wells of a 24-well culture dish in the same culture medium. One day later, cells are washed and the DMEM culture medium is replaced with Keratinocyte Basal Medium (KBM).
In this assay, low-passage human dermal fibroblasts are grown for three days in Keratinocyte Basal Medium (KBM) at a calcium concentration (0.1 mM) that is too low to support survival. […] How retinoids act to prevent fibroblast lysis is not fully understood, but part of the mechanism involves modulation of calcium transit across the cell membrane in the presence of the active retinoids (see, e.g., Varani J, et al., Am. J. Path. 136:1275-1281, 1990; Varani K, et al., Am J. Pathol. 147:718-729, 1995; Varani J, et al., Amer. J. Pathol. 148: 1307-1312, 1996).

human dermal fibroblasts [2] = assay: Retinoid-induced fibroblast cytotoxicity; type: cell-based; conditions: KBM 1.5 mM calcium, 72 hours, up to 5 μg/mL
Experimental: as §1
This assay is similar to the fibroblast cytotoxicity assay except that the human dermal fibroblasts are plated in culture medium (KBM) supplemented with a concentration of calcium (1.5 mM) that supports survival on its own. The biologically active retinoids are included in the culture medium and the cells incubated for 72 hours. Under such conditions, there is little net increase in growth with added retinoid, and at high concentrations, cytotoxicity occurs (see, e.g., Varani, J., et al., J. Invest. Dermatol. 101:839-842).
That is, there was little decline in cell numbers compared to control with retinoid concentrations up to 5 μg/mL.

[3] = tested on: human epidermal keratinocytes; assay: Retinoid-induced keratinocyte desquamation (cell-cell detachment, trypsin/EDTA); type: cell-based; conditions: two days, KBM 1.5 mM calcium
Experimental: At the end of the incubation period, the cells were exposed to a combination of trypsin and EDTA and the percentage of cells that detached from one another were assessed over time.
Human epidermal keratinocytes are isolated from the same skin biopsies as fibroblasts and grown in monolayer culture using Keratinocyte Growth Medium (KGM) as described previously (see, e.g., Varani J, et al., J Clin Invest. 1994; Varani J, et al., J. Invest. Dermatol. 94:717-723, 1990; Varani J, et al., J. Invest. Dermatol. 1989; 93:449-454). Growth is at 37° C. in a humidified atmosphere containing 5% CO2 and 95% air. For some studies, experiments use the HaCat line of immortalized human epidermal keratinocytes in place of primary or low-passage cells. Growth for these cells is exactly as with low-passage keratinocytes.
When keratinocytes are grown in monolayer culture, proliferation is optimal under low-calcium (0.05-0.15 mM) conditions. When the calcium concentration is raised to 1.5 mM, the keratinocyte differentiation occurs and proliferation slows. Under such conditions, strong cell-cell connections are made. […] The end result is that cells separate more easily from one another (see, e.g., Varani J, et al., J. Invest. Dermatol. 1989; 93:449-454; Varani J, et al., J Invest. Dermatol. 97:917-921, 1991; Varani J, et al., Am. Path. 138:887-895, 1991). Retinoid efficacy in acne is dependent, in part at least, on reduced epidermal cohesion and ability of acne lesional skin to slough during washing.
As a way to quantify detachment, keratinocytes grown for 2 days in culture medium containing 1.5 mM calcium were washed and exposed to a combination of trypsin and EDTA. Cell detachment from neighboring cells was assessed at timed intervals.

[4] = tested on: normal human skin in organ culture; assay: Retinoid-induced skin thickening in human skin organ culture; type: cell-based; conditions: 1 μg/mL, 8 days organ culture
Experimental: Human skin biopsies were incubated for 8 days in organ culture. […] At the end of the incubation period, the tissue was fixed for histology and examined at the light microscopy level after staining with hematoxylin and eosin. […] These abnormalities are not seen in the ex. 1—treated skin section.
Replicate 2-mm punch biopsies (up to 12 per subject) are obtained from hip skin of volunteers 18-70 years of age. The participation of human subjects is approved by the University of Michigan Institutional Review Board and all subjects provide written informed consent prior to their inclusion in the study. The punch biopsies are incubated in wells of a 24 well dish (one tissue piece per 200-500 μL of culture medium). Culture medium consists of KBM. For organ culture, the culture medium is supplemented with calcium chloride to a final calcium concentration of 1.5 mM. One or two wells are typically left as control while the others are treated as desired. Fresh culture medium and treatments are provided at 2-day intervals. Organ culture-conditioned medium collected at day-2 is saved for cytokine assessment or for measure of other bioactive molecules as desired. At the end of the incubation period (typically, day-8), the tissue is fixed in 10% buffered formalin and used for histology. The organ culture protocol used here is virtually identical to that described in several past reports (see, e.g., Varani J, et al., J Clin Invest. 1994; 94:1747-1756; Varani J, et al., Am J Pathol. 1993 January; 142(1):189-98; Lateef H, et al., Am J Pathol. 2004; 165:167-174; Varani J, et al., Exp Mol Pathol. 2004; 77(3):176-83; Varani J, et al., Am J Pathol. 1993 June; 142(6):1813-22; Varani J, et al., Toxicol. Pathol. 35:693-701, 2007; Rittié L, et al., J Invest Dermatol, 126:732-739, 2006).

[5] = Rhino mouse topical treatment: spleen size; type: in vivo; conditions: 0.1% topical, 21 days
Description: Mouse skin is rather thinner than human skin, and topically applied drugs tend to get into the circulation more readily when applied to mice, especially the hairless mutants, than to humans.

[6] = tested on: human skin in organ culture; conditions: cited from earlier work

| Structure (SMILES) | fall-off in cell numbers (human dermal fibroblasts [1]; 5 μg/mL, low-calcium survival assay) | concentration at which protection was optimal (human dermal fibroblasts [1]; KBM 0.1 mM calcium, three days) [µg/mL] | protection of fibroblasts from lysis (percentage of initially present cells still viable) (human dermal fibroblasts [1]; KBM 0.1 mM calcium, three days) | fibroblast cytotoxicity (decline in cell numbers compared to control) (human dermal fibroblasts [2]) | ease of cell-cell separation (percentage of cells detached over time) ([3]; 1.0 μg/mL) | epidermal thickening (hyperplastic changes), histology [4] | toxicity in the upper epidermis, histology [4] | spleen size (splenomegaly) [5] | effect on collagen-degrading enzyme MMP-1 (collagenase 1) ([6]; human skin organ culture model) | procollagen I production ([6]; human skin organ culture model) | up-regulation of the pro-inflammatory cytokines that underlie retinoid-induced skin irritation ([6]; past studies) | protection of fibroblasts from lysis (percentage of initially present cells still viable) (human dermal fibroblasts [1]; KBM 0.1 mM calcium, three days, listed as Compound 1) | ease of cell-cell separation (percentage of cells detached over time) ([3]; 2.5 μg/mL) |
| --- | --- | --- | --- | --- | --- | --- | --- | --- | --- | --- | --- | --- | --- |
| CC1=C(/C=C/C(C)=C/C=C/C(C)=C/C(=O)O)C(C)(C)CCC1 [ATRA, all-trans retinoic acid, reference compound] | incipient toxicity | 1.0 | capable of protecting fibroblasts from lysis under low-calcium conditions | lack of fibroblast cytotoxicity at concentrations as high as 5 μg/mL | increased the ease of cell-cell separation as compared to control | hyperplastic changes (increased epidermal thickening) | evidence of toxicity in the upper epidermis (i.e., incomplete keratinization with loss of granular layer) | very marked splenomegaly | inhibited the major collagen-degrading enzyme (MMP-1, collagenase 1) | induced procollagen I production | as expected, did |  |  |
| CC1=C(/C=C/C(C)=C\C=C\C(C)=C\C(=O)N(C)CC(=O)C(C)(C)C)C(C)(C)CCC1 [Example 1, (2E,4E 6Z,8E)-N-(3,3-dimethyl-2-oxobutyl)-N,3,7-trimethyl-9-(2,6,6-trimethylcyclohex-1-en-1-yl)nona-2,4,6,8-tetraenamide] |  |  | capable of protecting fibroblasts from lysis under low-calcium conditions |  | more potent than ATRA | hyperplastic changes (increased epidermal thickening) | not seen |  |  |  |  | as effective as ATRA |  |
| CC1=C(/C=C/C(C)=C\C=C\C(C)=C\C(=O)N(C)CC(=O)c2ccccc2)C(C)(C)CCC1 [Example 2, (2E,4E 6Z,8E)-N,3,7-trimethyl—N-(2-oxo-2-phenylethyl)-9-(2,6,6-trimethylcyclohex-1-en-1-yl)nona-2,4,6,8-tetraenamide] |  |  | capable of protecting fibroblasts from lysis under low-calcium conditions |  |  |  |  |  |  |  |  |  | comparable to ATRA at 1 μg/mL |

Source: patent US11148998B2, “Dimethyl-nonatetraenyl-trimethyl-cyclohexyl compounds and uses thereof” (The Regents of the University of Michigan, priority 2017, dated 2021)
